These results are taken from US20240209010A1, “PRODRUGS OF AZO COMPOUNDS AND THEIR SALTS” (KASHIV BIOSCIENCES, LLC, priority 2021, published 2024).

Usually AUC(0-t) stands for exposure summed from dosing to a finite time, without extrapolation to infinity. The Tmax is the time from dosing to the highest level. One may read the Cmax as the maximum level reached in the sampled fluid or tissue.

One data set relates to P2RX3 gene. In words: Gene expression analysis (qRT-PCR) of P2RX3 in cyclophosphamide-treated RT4 cells. The data set is classed as cell-based, Human. The settings on record: 100 μM CYP + 10 μM compound, 4 h incubation, compared to CYP control. As for the experimental part:
Study Design: With objective of evaluating effect of text compounds on the pain related markers we have utilized human urothelial “RT4 (Human Urinary bladder carcinoma cells)” cells, treated with test compounds in combination with cyclophosphamide (CYP) and performed gene expression analysis of pain related gene. For gene expression study, 0.5×10^6 cells were treated with cyclophosphamide and test compounds. Cells were incubated for 4 h at 37° C. Experimental Groups: Groups 1: Untreated cells, Group 2: CYP treated (100 μM CYP), Group 3: CYP+Compound IX (100 μM CYP+10 μM Compound IX).
At the end of 4 hr incubation, medium was removed from all wells and cells were washed once with sterile PBS. RNA isolation was performed as per the manufacturer's instruction utilizing Qiagen RNA mini kit (Cat #74104). Followed by cDNA synthesis using 3 μg of total RNA each sample utilizing Superscript III First strand cDNA synthesis system (Thermo fisher, Cat No 18080051). qRT-PCR was performed using the SYBR green master mix (PCR Biosystems, Cat No:—PB20.14) and primers specific for P2RX3 gene. Upon the completion of PCR, the data was analysed using the CFX manager software. The Fold change of the expression was calculated using the following formula: 2^−ddCT=2^−((CT target −CT internal control)
(Real-time PCR tracks product formation cycle by cycle.)

The nature of data set [1]: Pharmacokinetic data in rat after single oral administration. The settings on record: analyte = the administered compound itself, single oral dose (No. 12 31.2, No. 43 32.8, No. 446 34.8, No. 449 25, XIII 21.2, No. 54 27 mg/kg), fasted female Sprague Dawley rat. In kind it is in vivo. As for the experimental part: The objective of the study was to evaluate pharmacokinetic exposure of Compound XI along with Compound No. 12/Compound No. 43/Compound No. 446/Compound No. 449/Compound XIII/Compound No. 54 after per oral dosing at 31.2 mg/kg of Compound No. 12, 32.8 mg/kg of Compound No. 43, 34.8 mg/kg of Compound No. 446, 25 mg/kg of Compound No. 449, 21.2 mg/kg of Compound XIII and 27 mg/kg of Compound No. 54 in female Sprague Dawley rat. This study was performed in overnight fasted female Sprague Dawley rat. Dose formulation was prepared freshly on the day of dosing. 0.1% tween-80+99.9% of 0.5% CMC was used as vehicle for the preparation of dose formulation.
Blood samples were collected through retro orbital plexus puncture at pre-dose, 0.25, 0.5, 1, 2, 4, 8, 12 and 24 h post-dose. At each time point, blood was withdrawn and transferred into a pre-labeled of micro centrifuge tubes containing anti-coagulant. Tube was mixed gently by inverting the tube to facilitate mixing of anticoagulant with the blood. All blood/plasma samples were analysed using fit-for purpose LC-MS/MS method.
The pharmacokinetic parameters were calculated using standard non-compartmental analysis (Phoenix® software, version 8.3, Pharsight Corporation, Mountain View, California 94040/USA) using linear trapezoidal method with linear interpolation.

Each structure is given as a SMILES string.

Consider `Nc1nc(N)c(/N=N/c2ccccc2)cc1O` [Compound IX], for which the “P2RX3 gene expression (fold change)” value with P2RX3 gene is “reduction in P2RX3 gene expression”.

For the compound `NCC(=O)Nc1ccc(/N=N/c2ccccc2OC(=O)N2CCOCC2)c(N)n1` [Compound No. 446], the “AUC% Extrap—obs” value in data set [1] is given as 11.73%. In data set [1] (in vivo), the AUC(0-t) came out at 151 ng·h/mL and the time to peak (Tmax) was 15 min. The compound further came in with a Cmax in data set [1] (in vivo, arithmetic mean) of 145 ng/mL. In addition, the AUC(0-inf) in data set [1] (in vivo, read-out: AUCinf—obs) came to 170 ng·h/mL.
